Assay results reported in patent US7491827B2, “Aryl sulfonamides useful as inhibitors of chemokine receptor activity” (Millennium Pharmaceuticals, Inc., priority 2003, dated 2009).

biological target: T1, cloned human CCR8 receptor stably expressed in L1.2 cells (Homo sapiens, UniProt P51685); assay: whole cell binding screen: inhibition of biotinylated human I309 binding to CCR8 (FMAT 8100 HTS); conditions: Ki of compounds to inhibit I-309 binding to CCR8, L1.2/hCCR8 cells, biotinylated human I-309, 10 point concentration response starting at 10 μM
T1 construct: expressed in transfected cells
T1 sequence (P51685 whole entry): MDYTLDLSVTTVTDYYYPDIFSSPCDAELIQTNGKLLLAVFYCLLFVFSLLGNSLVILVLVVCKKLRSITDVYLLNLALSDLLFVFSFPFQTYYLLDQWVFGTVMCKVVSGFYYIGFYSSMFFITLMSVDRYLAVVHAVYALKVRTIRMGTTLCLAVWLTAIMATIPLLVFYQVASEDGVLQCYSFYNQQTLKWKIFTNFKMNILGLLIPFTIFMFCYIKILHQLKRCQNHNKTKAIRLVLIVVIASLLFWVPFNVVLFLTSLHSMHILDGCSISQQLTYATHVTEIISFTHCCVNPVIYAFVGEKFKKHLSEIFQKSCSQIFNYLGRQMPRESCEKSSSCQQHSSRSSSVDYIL
In short: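 L1.2 murine pre-B cells stably expressing human CCR8 (4.0×10^5 cells/mL) in HBSS/HEPES/fatty-acid-free BSA/azide buffer were mixed with biotinylated human I309 and compounds for 0.5 h, read by FMAT fluorescence. 10-point curves from 10 μM final; percent inhibition normalized to no-inhibitor and 100 nM unlabeled I309 controls.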

Row | Compound | Ki [nM]
1 | Cc1ccccc1C(=O)Nc1ccc(S(=O)(=O)NC2CCN(C(=O)CN)CC2)c2ccccc12 [Compound C-122, N-{4-[1-(2-Amino-acetyl)-piperidin-4-ylsulfamoyl]-naphthalen-1-yl}-2-methyl-benzamide] | < 500
2 | CCOC(=O)N1CCC(NS(=O)(=O)c2cccc3c(NC(=O)c4ccccc4)cccc23)CC1 [Compound H-6, 4-(5-Benzoylamino-naphthalene-1-sulfonylamino)-piperidine-1-carboxylic acid ethylester] | < 500
3 | CCOC(=O)N1CCC(NS(=O)(=O)c2ccc3cccc(NC(=O)c4ccccc4)c3c2)CC1 [Compound H-51, 4-(8-Benzoylamno-naphthalene-2-sulfonylamino)-piperidine-1-carboxylic acid ethyl ester] | < 30000
4 | O=C(Nc1ccc(S(=O)(=O)NC2CCNCC2)c2ccccc12)c1ccccc1 [Compound C-1, N-[4-(Piperidin-4-ylsulfamoyl)-naphthalen-1-yl]-benzamide] | < 1000

same assay, conditions: L1.2/hCCR8 cells, biotinylated human I-309, 10 point concentration response starting at 10 μM; read-out: Ki of compounds to inhibit I-309 binding to CCR8

Row | Compound | Ki [nM]
5 | CCN(CC)C(=O)N1CCC(NS(=O)(=O)c2ccc(NC(=O)c3ccccc3C)c3c2CCCC3)CC1 [Compound E-14, 4-[4-(2-Methyl-benzoylamino)-5,6,7,8-tetrahydro-naphthalene-1-sulfonylamino]-piperidine-1-carboxylic acid diethylamide] | < 1000
6 | CC(=O)N1CC[C@H](NS(=O)(=O)c2ccc(NC(=O)c3ccccc3C)c3ccccc23)[C@H](C)C1 (racemic) [Compound C-30, (±)-cis-N-[4-(1-Acetl-3-methyl-piperidin-4-ylsulfamoyl)-naphthalen-1-yl]-2-methyl-benzamide] | < 500
7 | CN1CCCC(C(=O)Nc2ccc(S(=O)(=O)NC3CCNCC3)c3ccccc23)C1 [Compound D-22, 1-Methyl-piperidine-3-carboxylic acid [4-(piperidin-4-ylsulfamoyl)-naphthalen-1-yl]-amide] | < 30000
8 | Cc1ccccc1NC(=O)c1ccc(S(=O)(=O)NC2CCNCC2)c2ccccc12 [Compound F-5, 4-(Piperidin-4-ylsulfamoyl)-naphthalene-1-carboxylic acid o-tolylamide] | < 30000
9 | COc1ccc(NS(=O)(=O)c2ccc(NC(=O)c3ccccc3OC)c3ccccc23)cc1 [Compound B-6, 2-Methoxy-N-[4-(4-methoxy-phenylsulfamoyl)-naphthalen-1-yl]-benzamide] | < 30000
10 | COc1ccc(NS(=O)(=O)c2ccc(NC(=O)Cc3ccccc3)c3ccccc23)cc1 [Compound B-7, N-[4-(4-Methoxy-phenylsulfamoyl)-naphthalen-1-yl]-2-phenyl-acetamide] | < 500
11 | CCCC(=O)N1CC[C@H](NS(=O)(=O)c2ccc(NC(=O)c3ccccc3C)c3ncccc23)[C@H](C)C1 [Compound J-41, (3R, 4S)-N-[5-(1-Butyryl-3-methyl-piperidin-4-ylsulfamoyl)-quinolin-8-yl]-2-methyl-benzamide] | < 500
12 | O=C(Nc1ccc(S(=O)(=O)Nc2ccc(C(F)(F)F)cc2)c2ccccc12)c1ccccc1 [Compound A-30, N-[4-(4-Trifluoromethyl-phenylsulfamoyl)-naphthalen-1-yl]-benzamide] | < 30000
13 | O=C(Nc1cccc2c(S(=O)(=O)Nc3ccc(F)cc3)cccc12)c1ccccc1 [Compound H-4, N-[5-(4-Fluoro-phenylsulfamoyl)-naphthalen-1-yl]-benzamide] | < 30000
14 | CN1CCC(C(=O)Nc2ccc(S(=O)(=O)NC3CCN(C(=O)OC(C)(C)C)CC3)c3ccccc23)CC1 [Compound B-21, 4-{4-[(1-Methyl-piperidine-4-carbonyl)-amino]-naphthalene-1-sulfonylamino}-piperidine-1-carboxylic acid tert-butyl ester] | < 30000
15 | CCOC(=O)N1CCC(NS(=O)(=O)c2cccc3c(NC(=O)c4cc5ccccc5s4)cccc23)CC1 [Compound H-18, 4-{5-[(Benzo[b]thiophene-2-carbonyl)-amino]-naphthalene-1-suffonylamino}-piperidine-1-carboxylic acid ethyl ester] | < 500
16 | CCOC(=O)C1CN(C(=O)CN(C)C)CCC1NS(=O)(=O)c1ccc(NC(=O)c2ccccc2C)c2ccccc12 (stereo not drawn) [Compound C-83, 1-(2-Dimethylainino-acetyl)-4-[4-(2-methyl-benzoylamino)-naphthalene-1-sulfonylamino]-piperidine-3-carboxylic acid ethyl ester] | < 30000
17 | COc1ccc(NS(=O)(=O)c2ccc(NC(=O)Nc3ccccc3)c3ccccc23)cc1 [Compound B-10, 4-(3-Phenyl-ureido)-naphthalene-1-sulfonic acid (4-methoxy-phenyl)-amide] | < 30000
18 | CCOC(=O)N1CCC(NS(=O)(=O)c2ccc(CNCCc3ccccc3)c3ccccc23)CC1 [Compound G-24, 4-[4-(Phenethylamino-methyl)-naphthalene-1-sulfonylamino]-piperidine-1-carboxylic acid ethyl ester] | < 500
19 | Cc1ccccc1C(=O)Nc1ccc(S(=O)(=O)NCCCN2CCOCC2)c2c1CCCC2 [Compound E-25, 2-Methyl-N-[4-(3-morpholin-4-yl-propylsulfamoyl)-5,6,7,8-tetrahydro-naphthalen-1-yl]-benzamide] | < 30000
20 | CCOC(=O)N1CCC(NS(=O)(=O)c2ccc(CNCc3ccc(OC)cc3)c3ccccc23)CC1 [Compound G-10, 4-{4-[(4-Methoxy-benzylamino)-methyl]-naphthalene-1-sulfonylamino}-piperidine-1-carboxylic acid ethyl ester] | < 500
21 | Cc1ccccc1C(=O)Nc1ccc(S(=O)(=O)N[C@@H]2CCNC[C@H]2C)c2ccccc12 [Compound J-54] | < 5000
22 | Cc1ccccc1C(=O)Nc1ccc(S(=O)(=O)N[C@H]2CCNC[C@H]2C)c2ccccc12 [Compound J-50] | < 500
23 | Cc1ccccc1C(=O)Nc1ccc(S(=O)(=O)NC2CCN(C(=O)CN3CCCCC3)CC2)c2ccccc12 [Compound C-148, 2-Methyl-N-{4-[1-(2-piperidin-1-yl-acetyl)-piperidin-4-ylsulfamoyl]-naphthalen-1-yl}-benzamide] | < 30000
24 | CCNC(=O)N1CCC(NS(=O)(=O)c2ccc(NC(=O)c3ccccc3C)c3ccccc23)C(C)(C)C1 (racemic) [Compound C-21, (±)-3,3-Dimethyl-4-[4-(2-methyl-benzoylamino)-naphthalene-1-sulfonylamino]-piperidine-1-carboxylic acid ethylamide] | < 500
25 | Cc1ccccc1C(=O)Nc1ccc(S(=O)(=O)NC2CCN(c3nc4ccccc4o3)CC2)c2ccccc12 [Compound C-60, N-[4-(1-Benzooxazol-2-yl-piperidin-4-ylsulfamoyl)-naphthalen-1-yl]-2-methyl-benzamide] | < 500
26 | CC(C)(C)OC(=O)N1CCC(NS(=O)(=O)c2ccc(NC(=O)C3CCCC3)c3ccccc23)CC1 [Compound B-16, 4-[4-(Cyclopentanecarbonyl-amino)-naphthalene-1-sulfonylamino]-piperidine-1-carboxylic acid tert-butyl ester] | < 1000
27 | CCOC(=O)N1CCC(NS(=O)(=O)c2cc3c(c(NC(=O)C4CCCCC4)c2)CCCC3)CC1 [Compound H-57, 4-[4-(Cyclohexanecarbonyl-amino)-5,6,7,8-tetrahydro-naphthalene-2-sulfonylamino]-piperidine-1-carboxylic acid ethyl ester] | < 1000
